Assay results as given in ChEMBL document CHEMBL1124139, “2,4-Dihydro-3H-1,2,4-triazole-3-thiones as potential antidepressant agents” (J Med Chem, 1988).

organism: Mus musculus; experiment: Antidepressant activity was evaluated by measuring its ability to antagonize RO 4-1284-induced hypothermia in mice; type: functional; conditions: not given

SMILES	ED50
C#CCN(C)[C@H](C)Cc1ccccc1 [SELEGILINE]	1.8 mg/kg
Cn1nc(-c2ccc(Cl)cc2Cl)n(C)c1=S	> 25 mg/kg
Cn1nc(-c2ccc(Cl)c(Cl)c2)n(C)c1=S	29 mg/kg
Cn1nc(-c2ccccc2)n(C)c1=S	0.15 mg/kg
CN(C)CCCN1c2ccccc2CCc2ccccc21 [IMIPRAMINE]	0.5 mg/kg
Cn1nc(-c2c(Cl)cccc2Cl)n(C)c1=S	> 50 mg/kg
Cn1c(S)nnc1-c1ccccc1	> 50 mg/kg
Cn1nc(-c2cccc3ccccc23)n(C)c1=S	> 50 mg/kg
C#CCN(C)Cc1ccccc1 [PARGYLINE]	13.6 mg/kg
Cn1nc(-c2ccc(Cl)cc2)n(C)c1=S	1.34 mg/kg
COc1ccc(-c2nn(C)c(=S)n2C)cc1	> 25 mg/kg
Cn1nc(-c2ccc(F)cc2F)n(C)c1=S	1 mg/kg
Sc1n[nH]c(-c2ccc(Cl)cc2)n1	> 50 mg/kg
CC(Cc1ccccc1)NN (centres undefined) [PHENIPRAZINE]	1.1 mg/kg
Cn1nc(-c2ccc3c(c2)OCO3)n(C)c1=S	> 50 mg/kg
Cn1c(S)nnc1-c1ccc(Cl)cc1	> 50 mg/kg
CNCCCN1c2ccccc2CCc2ccccc21 [DESIPRAMINE]	0.94 mg/kg

organism: Mus musculus; experiment: Antidepressant activity was evaluated by measuring its ability to antagonize reserpine-induced ptosis in mice; type: functional; conditions: not given

SMILES	ED50
C#CCN(C)[C@H](C)Cc1ccccc1 [SELEGILINE]	4.9 mg/kg
Cn1nc(-c2ccc(Cl)c(Cl)c2)n(C)c1=S	4.4 mg/kg
Cn1nc(-c2ccccc2)n(C)c1=S	0.13 mg/kg
Cn1nc(-c2c(Cl)cccc2Cl)n(C)c1=S	> 100 mg/kg
Cn1c(S)nnc1-c1ccccc1	> 200 mg/kg
Cn1nc(-c2cccc3ccccc23)n(C)c1=S	> 200 mg/kg
C#CCN(C)Cc1ccccc1 [PARGYLINE]	37.1 mg/kg
Cn1nc(-c2ccc(Cl)cc2)n(C)c1=S	0.27 mg/kg
COc1ccc(-c2nn(C)c(=S)n2C)cc1	3.3 mg/kg
Cn1nc(-c2ccc(F)cc2F)n(C)c1=S	2.37 mg/kg
Sc1n[nH]c(-c2ccc(Cl)cc2)n1	> 200 mg/kg
CC(Cc1ccccc1)NN (centres undefined) [PHENIPRAZINE]	1.61 mg/kg
Cn1nc(-c2ccc3c(c2)OCO3)n(C)c1=S	> 200 mg/kg
Cn1c(S)nnc1-c1ccc(Cl)cc1	> 200 mg/kg
CNCCCN1c2ccccc2CCc2ccccc21 [DESIPRAMINE]	1.86 mg/kg

test system: not listed separately; experiment: Acute cytotoxicity was evaluated as LD50 in mice (ip); type: organism-based; conditions: mouse, in vivo

SMILES	LD50
C#CCN(C)[C@H](C)Cc1ccccc1 [SELEGILINE]	200 mg/kg
Cn1nc(-c2ccc(Cl)cc2Cl)n(C)c1=S	> 80 mg/kg
Cn1nc(-c2ccc(Cl)c(Cl)c2)n(C)c1=S	> 800 mg/kg
Cn1nc(-c2ccccc2)n(C)c1=S	100 mg/kg
Cn1nc(-c2c(Cl)cccc2Cl)n(C)c1=S	400 mg/kg
Cn1c(S)nnc1-c1ccccc1	> 800 mg/kg
Cn1nc(-c2cccc3ccccc23)n(C)c1=S	> 800 mg/kg
C#CCN(C)Cc1ccccc1 [PARGYLINE]	400 mg/kg
Cn1nc(-c2ccc(Cl)cc2)n(C)c1=S	400 mg/kg
COc1ccc(-c2nn(C)c(=S)n2C)cc1	> 800 mg/kg
Cn1nc(-c2ccc(F)cc2F)n(C)c1=S	400 mg/kg
Sc1n[nH]c(-c2ccc(Cl)cc2)n1	> 800 mg/kg
CC(Cc1ccccc1)NN (centres undefined) [PHENIPRAZINE]	100 mg/kg
Cn1nc(-c2ccc3c(c2)OCO3)n(C)c1=S	> 800 mg/kg
Cn1c(S)nnc1-c1ccc(Cl)cc1	> 800 mg/kg
CNCCCN1c2ccccc2CCc2ccccc21 [DESIPRAMINE]	75 mg/kg

biological target: T1, Amine oxidase [flavin-containing] B (Rattus norvegicus, UniProt P19643); experiment: Concentration required to inhibit Monoamine oxidase B in rat brain using [14C]phenylethylamine; type: tissue-based; parameters: Control: scale not given: the % may be the effect or the level left; conditions: not given
T1 sequence (P19643 whole entry): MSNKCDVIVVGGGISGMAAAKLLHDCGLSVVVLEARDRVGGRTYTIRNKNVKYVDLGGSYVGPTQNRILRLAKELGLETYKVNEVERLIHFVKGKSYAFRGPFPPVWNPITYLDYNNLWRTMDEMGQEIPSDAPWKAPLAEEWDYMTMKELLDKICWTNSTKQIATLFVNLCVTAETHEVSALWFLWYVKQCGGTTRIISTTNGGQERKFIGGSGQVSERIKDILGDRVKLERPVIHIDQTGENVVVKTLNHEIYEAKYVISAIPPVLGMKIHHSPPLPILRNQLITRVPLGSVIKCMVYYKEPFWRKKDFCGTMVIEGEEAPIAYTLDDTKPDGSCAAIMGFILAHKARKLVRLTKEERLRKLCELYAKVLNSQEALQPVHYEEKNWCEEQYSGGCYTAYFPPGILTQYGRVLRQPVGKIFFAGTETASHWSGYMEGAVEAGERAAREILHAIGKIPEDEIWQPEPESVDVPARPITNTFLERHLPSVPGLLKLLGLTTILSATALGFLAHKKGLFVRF

SMILES	Control	MAO-B activity (% of control)
C#CCN(C)[C@H](C)Cc1ccccc1 [SELEGILINE]	13%	
Cn1nc(-c2ccccc2)n(C)c1=S		110%
Cn1nc(-c2ccc(Cl)cc2)n(C)c1=S		75%

biological target: T2, Amine oxidase [flavin-containing] A (Rattus norvegicus, UniProt P21396); experiment: Concentration required to inhibit Monoamine oxidase A activity in rat brain using [14C]5-HT; type: tissue-based; conditions: not given
T2 sequence (P21396 whole entry): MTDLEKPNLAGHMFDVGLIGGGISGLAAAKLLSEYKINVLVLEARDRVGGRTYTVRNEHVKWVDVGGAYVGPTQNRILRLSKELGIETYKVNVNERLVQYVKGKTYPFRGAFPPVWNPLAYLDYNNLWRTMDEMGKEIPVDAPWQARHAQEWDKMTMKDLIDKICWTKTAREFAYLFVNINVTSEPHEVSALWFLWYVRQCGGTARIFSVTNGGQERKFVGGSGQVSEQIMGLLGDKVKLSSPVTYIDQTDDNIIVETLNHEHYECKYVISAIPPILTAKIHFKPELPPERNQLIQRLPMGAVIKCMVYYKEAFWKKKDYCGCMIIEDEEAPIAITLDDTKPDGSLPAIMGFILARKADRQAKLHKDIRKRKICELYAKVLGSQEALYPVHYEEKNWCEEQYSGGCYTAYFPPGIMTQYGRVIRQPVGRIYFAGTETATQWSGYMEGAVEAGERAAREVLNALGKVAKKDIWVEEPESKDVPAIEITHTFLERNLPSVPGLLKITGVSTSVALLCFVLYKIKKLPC

SMILES	MAO-A activity remaining (% of control)
Cn1nc(-c2ccccc2)n(C)c1=S	104%
Cn1nc(-c2ccc(Cl)cc2)n(C)c1=S	109%

organism: Rattus norvegicus; experiment: Concentration required to inhibit [3H]- NE(norepinephrine) uptake in to rat cortical synaptosomes; type: functional; parameters: scale not given: the % may be the effect or the level left; conditions: Brain

SMILES	Control
Cn1nc(-c2ccc(Cl)cc2)n(C)c1=S	90%
CNCCCN1c2ccccc2CCc2ccccc21 [DESIPRAMINE]	37%

organism: Rattus norvegicus; experiment: Concentration required to inhibit [3H]- NE(norepinephrine) uptake into rat cortical synaptosomes; type: functional; parameters: scale not given: the % may be the effect or the level left; conditions: Brain

SMILES	Control
Cn1nc(-c2ccccc2)n(C)c1=S	92%

test system: Rattus norvegicus; experiment: Ability of compound to inhibity the ability of NE to enhance the inhibition produced by GABA after 1 i.p. injection of 10 mg/kg administered (acute treatment); type: functional; conditions: ip, route intraperitoneal

SMILES	inhibition in vivo at 10 mg/kg
Cn1nc(-c2ccc(Cl)cc2)n(C)c1=S	33%

test system: Rattus norvegicus; experiment: Inhibitory activity of compound against ability of NE to enhance the inhibition produced by GABA after 1 i.p. injection of 10 mg/kg administered (acute treatment); type: functional; conditions: ip, route intraperitoneal

SMILES	inhibition in vivo at 10 mg/kg
CNCCCN1c2ccccc2CCc2ccccc21 [DESIPRAMINE]	68%

test system: Rattus norvegicus; experiment: Inhibitory activity of compound against ability of NE to enhance the inhibition produced by GABA after ip injection of 10 mg/kg administered once a day for 21 days (chronic treatment); type: functional; conditions: 504 h, route intraperitoneal

SMILES	inhibition in vivo at 10 mg/kg
CNCCCN1c2ccccc2CCc2ccccc21 [DESIPRAMINE]	49%

test system: Rattus norvegicus; experiment: Percent inhibitory activity caused by norepinephrine after 1 i.p. injection of 10 mg/kg administered (acute treatment); type: functional; conditions: ip, route intraperitoneal

SMILES	inhibition in vivo at 10 mg/kg
Cn1nc(-c2ccc(Cl)cc2)n(C)c1=S	6.3%
CNCCCN1c2ccccc2CCc2ccccc21 [DESIPRAMINE]	3.5%

test system: Rattus norvegicus; experiment: Percent inhibitory activity caused by norepinephrine after ip injection of 10 mg/kg administered once a day for 21 days (chronic treatment); type: functional; conditions: 504 h, route intraperitoneal

SMILES	inhibition in vivo at 10 mg/kg
Cn1nc(-c2ccc(Cl)cc2)n(C)c1=S	10.9%
CNCCCN1c2ccccc2CCc2ccccc21 [DESIPRAMINE]	7.8%

test system: Rattus norvegicus; experiment: Ability of compound to inhibity the ability of NE to enhance the inhibition produced by GABA after ip injection of 10 mg/kg administered once a day for 21 days (chronic treatment); type: functional; conditions: 504 h, route intraperitoneal

SMILES	inhibition in vivo at 10 mg/kg
Cn1nc(-c2ccc(Cl)cc2)n(C)c1=S	0%
